The record followed here is US9840475B2, “N-(substituted)-5-fluoro-4-imino-3-methyl-2-oxo-3,4-dihydropyrimidine-1(2H)-carboxamide derivatives” (Adama Makhteshim Ltd., priority 2012, dated 2017).

Read-outs that look alike come from different tables or passages of the source.

Data set [1] has as its system Mycosphaerella graminicola; anamorph: Septoria tritici; Bayer code SEPTTR. Briefly: Evaluation of fungicidal activity: leaf blotch of wheat (SEPTTR), disease control on wheat plants. Conditions: Zymoseptoria tritici. The class given is in vivo. The protocol: Evaluation of Fungicidal Activity: Leaf Blotch of Wheat (Mycosphaerella graminicola; anamorph: Septoria tritici; Bayer code […]) Wheat plants (variety Yuma) were grown from seed in a greenhouse in 50% mineral soil/50% soil-less Metro mix until the first leaf was fully emerged, with 7-10 seedlings per pot. These plants were inoculated with an aqueous spore suspension of Septoria tritici either prior to or after fungicide treatments. After inoculation the plants were kept in 100% relative humidity (one day in a dark dew chamber followed by two to three days in a lighted dew chamber) to permit spores to germinate and infect the leaf. The plants were then transferred to a greenhouse for disease to develop. The following table presents the activity of typical compounds of the present disclosure when evaluated in these experiments. The effectiveness of the test compounds in controlling disease was determined by assessing the severity of disease on treated plants, then converting the severity to percent control based on the level of disease on untreated, inoculated plants.

[2] abbreviates: 24 h, 100 ppm, one-day protectant, wheat plants (variety Yuma), percent control vs untreated, inoculated plants, read-out: SEPTTR 100 PPM 1DP (One-Day Protectant activity, % disease control rating).
The mark [3] stands for this setting: 72 h, 100 ppm, three-day curative, wheat plants (variety Yuma), percent control vs untreated, inoculated plants, read-out: SEPTTR 100 PPM 3DC (Three-Day Curative activity, % disease control rating).
[4] abbreviates: 24 h, read-out: SEPTTR 100 PPM 1DP (One-Day Protectant activity, % disease control rating).
Where [5] appears, read: 72 h, read-out: SEPTTR 100 PPM 3DC (Three-Day Curative activity, % disease control rating).

As for `Cn1c(=N)c(F)cn(C(=O)Nc2ccccc2)c1=O`, the melting point lay within 192.3 to 194.4 °C.

`Cc1ccc(NC(=O)n2cc(F)c(=N)n(C)c2=O)cc1` [Compound 1] registered a melting point of 184.7 to 186.2 °C. In addition, the pest or weed control at 100 ppm in data set [1] (setting [2]) is 51 to 75%. In addition, in data set [1] (setting [3]), the pest or weed control at 100 ppm is 0 to 25%.

Take `Cn1c(=N)c(F)cn(C(=O)Nc2ccc(Cl)cc2)c1=O` [Compound 2]: the melting point lay in the range of 199 to 200.8 °C. In data set [1] (setting [4]), the pest or weed control at 100 ppm lay within 26 to 50%. Also, the pest or weed control at 100 ppm in data set [1] (setting [5]) was in the range of 0 to 25%.

Take `Cn1c(=N)c(F)cn(C(=O)Nc2cc(F)cc(F)c2)c1=O` [Compound 3, N-(3,5-difluorophenyl)-5-fluoro-4-imino-3-methyl-2-oxo-3,4-dihydropyrimidine-1(2H)-carboxamide]: the melting point lay in the range of 203 to 204.5 °C. For the same molecule, the pest or weed control at 100 ppm in data set [1] (setting [2]) lay in the range of 0 to 25%. Besides, the pest or weed control at 100 ppm in data set [1] (setting [3]) lay within 51 to 75%.

On to `COc1ccc(NC(=O)n2cc(F)c(=N)n(C)c2=O)cc1` [Compound 4], for which the melting point was 194.8 to 195.4 °C. Besides, the pest or weed control at 100 ppm in data set [1] (setting [4]) is 51 to 75%. Also, the pest or weed control at 100 ppm in data set [1] (setting [5]) was 26 to 50%.

With `Cc1ccc(NC(=S)n2cc(F)c(=N)n(C)c2=O)cc1` [Compound 5], the pest or weed control at 100 ppm in data set [1] (setting [4]) and in data set [1] (setting [5]) was 76 to 100% in each case.

As to `Cn1c(=N)c(F)cn(C(=S)Nc2ccc(Cl)cc2)c1=O` [Compound 6, N-(4-chlorophenyl)-5-fluoro-4-imino-3-methyl-2-oxo-3,4-dihydropyrimidine-1(2H)-carbothioamide], the pest or weed control at 100 ppm in data set [1] (setting [2]) and in data set [1] (setting [3]) was 76 to 100% each time.

`Cn1c(=N)c(F)cn(C(=O)Nc2ccsc2)c1=O` [Compound 7]: the melting point lay within 194.2 to 195.2 °C. The pest or weed control at 100 ppm in data set [1] (setting [2]) was 51 to 75%. In addition, in data set [1] (setting [3]), the pest or weed control at 100 ppm was in the range of 76 to 100%.

As to `Cn1c(=N)c(F)cn(C(=O)Nc2cccs2)c1=O` [Compound 8], the melting point was 200.3 to 201.8 °C. Moreover, the pest or weed control at 100 ppm in data set [1] (setting [2]) was 51 to 75%. Besides, the pest or weed control at 100 ppm in data set [1] (setting [3]) lay within 76 to 100%.

For the molecule `COc1ccccc1NC(=O)n1cc(F)c(=N)n(C)c1=O` [Compound 9], the melting point lay within 168.9 to 170 °C. For the same molecule, in data set [1] (setting [2]), the pest or weed control at 100 ppm is 26 to 50%. Also, the pest or weed control at 100 ppm in data set [1] (setting [3]) lay within 76 to 100%.

Consider `Cc1cccc(NC(=O)n2cc(F)c(=N)n(C)c2=O)c1` [Compound 10], for which the melting point was in the range of 188.5 to 192.4 °C. Besides, the pest or weed control at 100 ppm in data set [1] (setting [2]) was 0 to 25%. Besides, the pest or weed control at 100 ppm in data set [1] (setting [3]) lay within 51 to 75%.

Take `Cn1c(=N)c(F)cn(C(=O)Nc2ccc(C(F)(F)F)cc2)c1=O` [Compound 11]: the melting point was in the range of 192.4 to 195.7 °C. Besides, the pest or weed control at 100 ppm in data set [1] (setting [2]) lay in the range of 0 to 25%. Besides, the pest or weed control at 100 ppm in data set [1] (setting [3]) lay in the range of 0 to 25%.

Consider `Cn1c(=N)c(F)cn(C(=O)Nc2cccc(F)c2)c1=O` [Compound 12], for which the melting point lay in the range of 197.5 to 199.4 °C. In addition, the pest or weed control at 100 ppm in data set [1] (setting [2]) was in the range of 51 to 75%. Besides, in data set [1] (setting [3]), the pest or weed control at 100 ppm lay within 0 to 25%.

For `Cn1c(=N)c(F)cn(C(=O)Nc2ccc(F)cc2)c1=O` [Compound 13], the melting point fell in the range of 194 to 196 °C. In addition, in data set [1] (setting [2]), the pest or weed control at 100 ppm fell in the range of 0 to 25%. The pest or weed control at 100 ppm in data set [1] (setting [3]) fell in the range of 26 to 50%.

In turn, `Cn1c(=N)c(F)cn(C(=O)Nc2cc(Cl)cc(Cl)c2)c1=O` [Compound 14] came in with a melting point of 210 to 213.1 °C. In data set [1] (setting [4]), the pest or weed control at 100 ppm lay within 0 to 25%. Moreover, in data set [1] (setting [5]), the pest or weed control at 100 ppm was in the range of 0 to 25%.

As to `Cn1c(=N)c(F)cn(C(=O)Nc2cccc(C#N)c2)c1=O` [Compound 15], the melting point fell in the range of 204.1 to 205.5 °C. In addition, in data set [1] (setting [2]), the pest or weed control at 100 ppm is 0 to 25%. Besides, in data set [1] (setting [3]), the pest or weed control at 100 ppm was in the range of 26 to 50%.

Molecule `Cc1ccc(NC(=O)n2cc(F)c(=N)n(C)c2=O)cc1Cl` [Compound 16] returned a melting point of 192.9 to 193.5 °C. In data set [1] (setting [2]), the pest or weed control at 100 ppm lay within 76 to 100%. Further, the pest or weed control at 100 ppm in data set [1] (setting [3]) fell in the range of 26 to 50%.

Regarding `COc1ccc(OC)c(NC(=O)n2cc(F)c(=N)n(C)c2=O)c1` [Compound 17], the melting point lay within 168.3 to 169.6 °C. Also, the pest or weed control at 100 ppm in data set [1] (setting [2]) was 76 to 100%. For the same molecule, in data set [1] (setting [3]), the pest or weed control at 100 ppm lay within 76 to 100%.

`Cn1c(=N)c(F)cn(C(=O)Nc2ccc(F)cc2Cl)c1=O` [Compound 18] gave a melting point of 203.6 to 205.5 °C. In data set [1] (setting [2]), the pest or weed control at 100 ppm lay in the range of 51 to 75%. Also, the pest or weed control at 100 ppm in data set [1] (setting [3]) fell in the range of 0 to 25%.

Consider `COc1ccc(NC(=O)n2cc(F)c(=N)n(C)c2=O)cc1F` [Compound 19], for which the melting point is 194.3 to 196.3 °C. Also, the pest or weed control at 100 ppm in data set [1] (setting [2]) was in the range of 76 to 100%. In data set [1] (setting [3]), the pest or weed control at 100 ppm is 26 to 50%.

In the case of `Cc1cc(NC(=O)n2cc(F)c(=N)n(C)c2=O)c(C)cc1Cl` [Compound 20], the melting point lay within 210 to 213 °C. In addition, the pest or weed control at 100 ppm in data set [1] (setting [2]) lay in the range of 51 to 75%. The pest or weed control at 100 ppm in data set [1] (setting [3]) is 26 to 50%.

The molecule `COc1cccc(NC(=O)n2cc(F)c(=N)n(C)c2=O)c1` [Compound 21] registered a melting point of 195.5 to 196.3 °C. For the same molecule, in data set [1] (setting [2]), the pest or weed control at 100 ppm lay in the range of 0 to 25%. Further, in data set [1] (setting [3]), the pest or weed control at 100 ppm was in the range of 0 to 25%.

Take `Cn1c(=N)c(F)cn(C(=S)Nc2cc(Cl)cc(Cl)c2)c1=O` [Compound 22]: the pest or weed control at 100 ppm in data set [1] (setting [2]) fell in the range of 51 to 75%; in data set [1] (setting [3]), 26 to 50%.
